Earlier results, collected in paper PMC7948455, “Novel drug discovery platform for spinocerebellar ataxia, using fluorescence technology targeting β-III-spectrin” (The Journal of Biological Chemistry, 2020).

Test system: mammalian cells
Details: 10 μM ref 36, 37, 38; cited from earlier work

CCCCCCCC/C=C\CCCCCCCC(=O)NCc1ccc(O)c(OC)c1 [olvanil]
Reduction of cell viability: < 10%
